Measurements from patent publication US20190216751A1, “Compositions and Methods for the Treatment and Prevention of Cancer” (California State University Northridge, priority 2017, published 2019).

Legend:
[1] = test system: ZEB1 expression in 4T1 cells; assay: qPCR ZEB1 mRNA, TGFβ-induced EMT; assay type: cell-based, mouse; conditions: for ZEB1 mRNA expression: GC7 10 μM pre-treatment
Source text: The pathway in which the inventors are interested in targeting eIF5A is in the context of TGFβ-induced EMT and TGFβ is a well-characterized inducer of EMT. […] Phase-contrast images are shown to the right of the western blot to indicate a shift in morphology after treatment with TGFβ. […] Since TGFβ can induce PEAK1 upregulation, while in contrast, hypusinated eIF5A promotes PEAK1 translation, the inventors sought to see if TGFβ alone can upregulate hypusinated eIF5A. Post-translational modifications can occur relatively fast. Therefore short-term treatments of TGFβ on 4T1, 67NR and MCF10CA1a cells were performed initially. Protein lysates were collected after 10, 30 and 120 minutes of treatment and immunoblotted for hypusine, total eIF5A and β-actin (FIG. 4B). […] Relative band intensity is graphed to the right of the western blot in which the ratio between hypusine to total eIF5A is compared first between treated samples to control samples then a ratio is calculated comparing each time point relative to 10 minutes as a starting time point of reference. […] The inventors were also interested in what genes were altered at the transcriptional level when dual treating with TGFβ and GC7 at the same time to block EMT. To test for this, 4T1 and MCF10CA1a cells were plated on either plastic or fibronectin extra-cellular matrix (ECM) protein and pre-treated them with GC7 at 10 μM for 48 hours to ensure the eIF5A hypusination pathway is blocked. The inventors then treated with TGFβ at 2.5 ng/mL and collected RNA after 12 or 48 hours. […] Phase contrast images were also taken before RNA collection to show changes in morphology where EMT was either induced or reversed (FIG. 4C). […] Also, with the correct treatment time and conditions, inhibition of hypusination can block TGFβ-induced EMT.
(§1) Next, the inventors investigated whether blockade of HDAC6 and DHPS activity could further suppress TGFβ-induced EMT either independently or simultaneously. To test this, 4T1 cells were treated with either TubA at 10 μM, GC7 at 10 μM or both for 48 hours. At this time point, protein lysates were collected as well as phase-contrast images (FIGS. 6B and 6C). At that same time point, the media was changed and the cells were re-treated with the same drugs at the same concentrations; however, this time with the addition of TGFβ at 2.5 ng/mL. The inventors collected protein lysates and phase-contrast images just one day post TGFβ treatment, calling this the 72-hour time point (FIGS. 6B and 6C). In addition, the inventors collected mRNA, protein lysates, phase-contrast and immunofluorescences images two days post TGFβ treatment, calling this the 96-hour time point (FIGS. 6A, 6B, 6C and 6D).
Cell lines were plated in a 6 well plate at 1e5 cells/mL and left to attach overnight. […]

E-cadherin in 4T1 cells = assay: Western blot E-cadherin, TGFβ-induced EMT; assay type: cell-based, mouse; conditions: 10 μM each drug, re-treated with TGFβ 2.5 ng/mL at 48 hours, 96-hour time point
Description: as §1
Cell lines were plated in a 6 well plate at 1e5 cells/mL and left to attach overnight. Cells were then treated if necessary then lysed using Radioimmunoprecipitation assay (RIPA) buffer containing phosphatase and protease inhibitors and left to rotate at 4° C. for at least 3 hours. Lysates were then cleared by centrifugation at 12,000 RPM for 10 minutes at 4° C. Protein concentrations were determined using Bradford Assay. […] Band intensity graphs were quantified using Fiji software after image thresholding.

MCF10CA1h cells = assay: Chicken CAM xenograft, tumor weight and metastasis (human Alu qPCR); assay type: in vivo
Description: FIGS. 11A and 11B. […] Human triple negative MCF10CA1h breast cancer cells were pre-treated with TGFβ and fibronectin for 7 days to induce PEAK1-dependent epithelial-mesenchymal transition and tumorigenic potential. 1e6 cells were xenografted onto the chorioallantoic membrane of 10 day old chicken embryos in 20 uL of growth factor reduced Matrigel, and subsequently treated with a vehicle control, GC7, TubastatinA (TubA) or both GC7/TubA at either 1 uM (panel A) or 10 uM (panel B). Tumors were allowed to develop over the following 7 days and then harvested and weighed along with the indicated liver, lung and brain tissues. gDNA was isolated from these additional tissues to quantify human Alu repeat sequence composition normalized to host chicken GAPDH as a measure of relative cell metastasis to the indicated tissues.
Based on the partially impaired expression of Zeb1 in vitro, we wanted to assess whether this effect would result in altered metastatic dissemination using the in vivo chicken CAM system.

[2] = test system: human triple negative breast cancer cells; assay: Cell proliferation assay and hypusine western blot, response to GC7; assay type: cell-based; conditions: FIGS. 2A and 3A
Description: Cell lines were plated in a 6 well plate at 1e5 cells/mL and left to attach overnight. Cells were then treated if necessary then lysed using Radioimmunoprecipitation assay (RIPA) buffer containing phosphatase and protease inhibitors and left to rotate at 4° C. for at least 3 hours. Lysates were then cleared by centrifugation at 12,000 RPM for 10 minutes at 4° C. Protein concentrations were determined using Bradford Assay. 4-12% Bis-Tris […] gels were used to run protein lysates at 20 μg of protein that were stained with NuPage LDS Sample Buffer. Gels were then transferred onto nitrocellulose membranes and exposed to primary antibody solutions at the following concentrations for each indicated antibody. PEAK1 (Millipore 1:400), E-cadherin (Cell Signaling 1:1,000), Hypusine (Thermo Scientific 1:1,000), eIF5A (Thermo Scientific 1:1,000) and β-actin (Pro-Sci 1:1,000). Secondary antibodies were used at a 1:5,000-1:10,000 dilution. Band intensity graphs were quantified using Fiji software after image thresholding.
The CellTiter 96® AQueous One Solution (Promega) was used to perform cell proliferation experiments. Cells were plated at 5e3 cells/mL at 200 μL/well in a 96-well plate and allowed to attach overnight. […] Absorbance readings were measured at 490 nm wavelength at 1.5, 2 and 3 hours (absorbance is directly proportional to the number of living cells).

4T1 cells = assay: Cell number by phase-contrast images, with TGFβ; assay type: cell-based, mouse; conditions: 10 μM each drug, 96-hour time point
Description: as §1
Images were taken of cells plated on a 6 well plate with appropriate conditions or treatments for experiment using widefield-brightfield phase contrast microscopy on a Leica DMI6000 B inverted microscope at 20× magnification.

[3] = 1 μM GC7, fibronectin and TGFβ pre-treated cells, 7 days

N=C(N)NCCCCCCCN.O=S(=O)(O)O [GC7, N1-Guanyl-1,7-diaminoheptane]
TGFβ-induced EMT, ZEB1 mRNA (qPCR) ([1]; 10 μM each drug, re-treated with TGFβ 2.5 ng/mL at 48 hours, 96-hour time point): failed to block TGFβ-induced EMT | ZEB1 mRNA expression ([1]; TGFβ 2.5 ng/mL 12 hours, fibronectin): this effect was blocked on fibronectin | ZEB1 mRNA expression ([1]; TGFβ 2.5 ng/mL 12 hours, plastic): decreased | ZEB1 mRNA expression ([1]; TGFβ 2.5 ng/mL 48 hours): This effect was not seen after 48 hours | TGFβ-induced EMT, E-cadherin protein expression (E-cadherin in 4T1 cells): dramatically increased | metastatic dissemination to lung (MCF10CA1h cells; [3]): significantly reduced | primary tumor mass (MCF10CA1h cells; [3]): unaffected | metastasis (MCF10CA1h cells; low doses of GC7 (1 uM, panel A)): reduces metastasis | sensitivity to GC7 treatment [2]: insensitive | cell number (4T1 cells): drastic reduction in cell number
